Experimental data from US10150764B2, “Substituted benzene compounds” (Epizyme, Inc., priority 2013, dated 2018).

Columns and labels:
[1] = molecular target: wild-type EZH2 (PRC2 enzyme) (Homo sapiens (Human), UniProt Q15910); test: PRC2 enzyme assay on peptide substrate, wild-type EZH2 (H3K27me0 peptide, 3H-SAM Flashplate); type: biochemical; settings: wild-type PRC2 4 nM, read-out: WT EZH2 IC50
Description: Human PRC2 enzymes were purified as 4-component enzyme complexes co-expressed in Spodoptera frugiperda (sf9) cells using a baculovirus expression system. […] The EED subunit contained an N-terminal FLAG tag that was used to purify the entire 4-component complex from sf9 cell lysates.
The assays were all performed in a buffer consisting of 20 mM bicine (pH=7.6), 0.5 mM DTT, 0.005% BSG and 0.002% Tween20, prepared on the day of use. […] DMSO (1 μL) was added to columns 11, 12, 23, 24, rows A-H for the maximum signal control, and SAH, a known product and inhibitor of PRC2 (1 μL) was added to columns 11, 12, 23, 24, rows I-P for the minimum signal control. A cocktail (40 μL) containing the wild-type PRC2 enzyme and H3K27me0 peptide or any of the Y641 mutant enzymes and H3K27me2 peptide was added by Multidrop Combi (Thermo). The compounds were allowed to incubate with PRC2 for 30 min at 25° C., then a cocktail (10 μL) containing a mixture of non-radioactive and ^3H-SAM was added to initiate the reaction (final volume=51 μL). […] The assays were stopped by the addition of non-radioactive SAM (10 μL) to a final concentration of 600 μM, which dilutes the ^3H-SAM to a level where its incorporation into the peptide substrate is no longer detectable. 50 of the reaction in the 384-well polypropylene plate was then transferred to a 384-well Flashplate and the biotinylated peptides were allowed to bind to the streptavidin surface for at least 1 h before being washed three times with 0.1% Tween20 in a Biotek ELx405 plate washer. The plates were then read in a PerkinElmer TopCount platereader to measure the quantity of ^3H-labeled peptide bound to the Flashplate surface, measured as disintegrations per minute (dpm) or alternatively, referred to as counts per minute (cpm).

[2] = molecular target: EZH2 Y641F mutant (PRC2 enzyme) (Homo sapiens (Human), UniProt Q15910, Y641F); test: PRC2 enzyme assay on peptide substrate, EZH2 Y641F mutant (H3K27me2 peptide, 3H-SAM Flashplate); type: biochemical; settings: Y641F mutant PRC2 4 nM
[3] = test system: H3K27me3 in WSU-DLCL2 cells; test: WSU-DLCL2 methylation assay (H3K27me3 ELISA); type: cell-based, human; settings: Homo sapiens, WSUDLCL2, 96 hours incubation, H3K27me3 normalised to total H3
Description: WSU-DLCL2 Methylation Assay
WSU-DLCL2 suspension cells were purchased from DSMZ (German Collection of Microorganisms and Cell Cultures, Braunschweig, Germany). RPMI/Glutamax Medium, Penicillin-Streptomycin, Heat Inactivated Fetal Bovine Serum, and D-PBS were purchased from Life Technologies, Grand Island, N.Y., USA. Extraction Buffer and Neutralization Buffer (5×) were purchased from Active Motif, Carlsbad, Calif., USA. Rabbit anti-Histone H3 antibody was purchased from Abcam, Cambridge, Mass., USA. Rabbit anti-H3K27me3 and HRP-conjugated anti-rabbit-IgG were purchased from Cell Signaling Technology, Danvers, Mass., USA. TMB “Super Sensitive” substrate was sourced from BioFX Laboratories, Owings Mills, Md., USA. IgG-free Bovine Serum Albumin was purchased from Jackson ImmunoResearch, West Grove, Pa., USA. PBS with Tween (10×PBST) was purchased from KPL, Gaithersburg, Md., USA. Sulfuric Acid was purchased from Ricca Chemical, Arlington, Tex., USA. Immulon ELISA plates were purchased from Thermo, Rochester, N.Y., USA. V-bottom cell culture plates were purchased from Corning Inc., Corning, N.Y., USA. V-bottom polypropylene plates were purchased from Greiner Bio-One, Monroe, N.C., USA.
WSU-DLCL2 suspension cells were maintained in growth medium (RPMI 1640 supplemented with 10% v/v heat inactivated fetal bovine serum and 100 units/mL penicillin-streptomycin) and cultured at 37° C. under 5% CO2. Under assay conditions, cells were incubated in Assay Medium (RPMI 1640 supplemented with 20% v/v heat inactivated fetal bovine serum and 100 units/mL penicillin-streptomycin) at 37° C. under 5% CO2 on a plate shaker.
WSU-DLCL2 cells were seeded in assay medium at a concentration of 50,000 cells per mL to a 96-well V-bottom cell culture plate with 200 μL per well. […] Plates were incubated on a titer-plate shaker at 37° C., 5% CO2 for 96 hours. After four days of incubation, plates were spun at 241×g for five minutes and medium was aspirated gently from each well of cell plate without disturbing cell pellet. Pellet was resuspended in: 200 μL DPBS and plates were spun again at 241×g for five minutes. The supernatant was aspirated and cold (4° C.) Extraction buffer (100 μL) was added per well. Plates were incubated at 4° C. on orbital shaker for two hours. Plates were spun at 3427×g×10 minutes. Supernatant (80 μL per well) was transferred to its respective well in 96 well V-bottom polypropylene plate. Neutralization Buffer 5× (20 μL per well) was added to V-bottom polypropylene plate containing supernatant. V-bottom polypropylene plates containing crude histone preparation (CHP) were incubated on orbital shaker×five minutes. Crude Histone Preparations were added (2 μL per well) to each respective well into duplicate 96 well ELISA plates containing 100 μL Coating Buffer (1×PBS+BSA 0.05% w/v). Plates were sealed and incubated overnight at 4° C. The following day, plates were washed three times with 300 μL per well 1×PBST. […] For H3K27me3 detection, 100 μL of HRP conjugated anti-rabbit IgG antibody diluted to 1:4000 in ELISA diluent was added per well. Plates were incubated at room temperature for 90 minutes. […] TMB substrate 100 μL was added per well. Histone H3 plates were incubated for five minutes at room temperature. H3K27me3 plates were incubated for 10 minutes at room temperature. The reaction was stopped with sulfuric acid 1N (100 μL per well). Absorbance for each plate was read at 450 nm.
Each plate included eight control wells DMSO only treatment (Minimum Inhibition) as well as eight control wells for maximum inhibition (Background wells).
The average of the ratio values for each control type was calculated and used to determine the percent inhibition for each test well in the plate. Test compound was serially diluted three-fold in DMSO for a total of ten test concentrations, beginning at 25 μM.

WSU-DLCL2 cells = test: Cell proliferation analysis, WSU-DLCL2 (Cell Titer Glo); type: cell-based; settings: Homo sapiens, WSUDLCL2, 144 h, 6 days incubation, ATP readout
Description: Cell Proliferation Analysis
WSU-DLCL2 suspension cells were purchased from DSMZ (German Collection of Microorganisms and Cell Cultures, Braunschweig, Germany), RPMI/Glutamax Medium, Penicillin-Streptomycin, Heat Inactivated Fetal Bovine Serum were purchased from Life Technologies, Grand Island, N.Y., USA, V-bottom polypropylene 384-well plates were purchased from Greiner Bio-One, Monroe, N.C., USA. Cell culture 384-well white opaque plates were purchased from Perkin Elmer, Waltham, Mass., USA. Cell-Titer Glo® was purchased from Promega Corporation, Madison, Wis., USA. SpectraMax M5 plate reader was purchased from Molecular Devices LLC, Sunnyvale, Calif., USA.
WSU-DLCL2 suspension cells were maintained in growth medium (RPMI 1640 supplemented with 10% v/v heat inactivated fetal bovine serum and cultured at 37° C. under 5% CO2. Under assay conditions, cells were incubated in Assay Medium (RPMI 1640 supplemented with 20% v/v heat inactivated fetal bovine serum and 100 units/mL penicillin-streptomycin) at 37° C. under 5% CO2.
For the assessment of the effect of compounds on the proliferation of the WSU-DLCL2 cell line, exponentially growing cells were plated in 384-well white opaque plates at a density of 1250 cell/ml in a final volume of 50 μl of assay medium. A compound source plate was prepared by performing triplicate nine-point 3-fold serial dilutions in DMSO, beginning at 10 mM (final top concentration of compound in the assay was 20 μM and the DMSO was 0.2%). A 100 nL aliquot from the compound stock plate was added to its respective well in the cell plate. […] After addition of compounds, assay plates were incubated for 6 days at 37° C., 5% CO2, relative humidity >90% for 6 days. Cell viability was measured by quantization of ATP present in the cell cultures, adding 35 μl of Cell Titer Glo® reagent to the cell plates. Luminescence was read in the SpectraMax M5. The concentration inhibiting cell viability by 50% was determined using a 4-parametric fit of the normalized dose response curves.

Chain of EZH2 Y641F mutant (PRC2 enzyme) (Q15910 whole entry Y641F): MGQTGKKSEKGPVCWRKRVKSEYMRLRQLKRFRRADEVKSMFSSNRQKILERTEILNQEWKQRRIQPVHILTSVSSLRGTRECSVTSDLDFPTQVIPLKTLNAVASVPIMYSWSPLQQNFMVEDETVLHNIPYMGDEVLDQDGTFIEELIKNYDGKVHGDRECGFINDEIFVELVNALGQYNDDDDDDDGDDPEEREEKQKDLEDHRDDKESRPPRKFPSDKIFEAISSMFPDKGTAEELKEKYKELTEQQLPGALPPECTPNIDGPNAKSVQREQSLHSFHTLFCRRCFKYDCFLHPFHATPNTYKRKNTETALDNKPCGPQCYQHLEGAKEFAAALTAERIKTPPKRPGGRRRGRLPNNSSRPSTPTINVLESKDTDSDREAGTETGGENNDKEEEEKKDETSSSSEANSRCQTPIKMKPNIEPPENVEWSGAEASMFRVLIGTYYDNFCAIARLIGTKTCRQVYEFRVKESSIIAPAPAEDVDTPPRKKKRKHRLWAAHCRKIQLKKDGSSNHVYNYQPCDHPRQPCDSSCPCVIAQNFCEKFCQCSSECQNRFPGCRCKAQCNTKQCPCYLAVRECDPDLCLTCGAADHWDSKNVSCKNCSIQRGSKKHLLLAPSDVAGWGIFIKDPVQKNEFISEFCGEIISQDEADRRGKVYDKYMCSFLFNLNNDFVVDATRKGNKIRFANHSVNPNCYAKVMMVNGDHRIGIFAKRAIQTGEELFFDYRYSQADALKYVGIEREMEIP
Chain of EZH2 Y641F mutant (PRC2 enzyme) (O75530 whole entry partner): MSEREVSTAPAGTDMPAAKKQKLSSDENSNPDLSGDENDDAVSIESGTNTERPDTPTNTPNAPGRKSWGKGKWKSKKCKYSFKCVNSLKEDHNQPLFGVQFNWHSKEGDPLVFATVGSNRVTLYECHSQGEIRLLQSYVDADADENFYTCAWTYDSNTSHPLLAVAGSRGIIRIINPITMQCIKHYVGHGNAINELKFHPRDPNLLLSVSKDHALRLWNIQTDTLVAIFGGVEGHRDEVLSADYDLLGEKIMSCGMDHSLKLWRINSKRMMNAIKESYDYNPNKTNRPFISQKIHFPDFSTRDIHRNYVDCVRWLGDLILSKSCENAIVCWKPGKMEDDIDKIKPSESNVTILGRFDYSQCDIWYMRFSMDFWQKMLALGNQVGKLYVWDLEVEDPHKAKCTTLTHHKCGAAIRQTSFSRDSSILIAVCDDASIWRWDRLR
Chain of EZH2 Y641F mutant (PRC2 enzyme) (Q15022 whole entry partner): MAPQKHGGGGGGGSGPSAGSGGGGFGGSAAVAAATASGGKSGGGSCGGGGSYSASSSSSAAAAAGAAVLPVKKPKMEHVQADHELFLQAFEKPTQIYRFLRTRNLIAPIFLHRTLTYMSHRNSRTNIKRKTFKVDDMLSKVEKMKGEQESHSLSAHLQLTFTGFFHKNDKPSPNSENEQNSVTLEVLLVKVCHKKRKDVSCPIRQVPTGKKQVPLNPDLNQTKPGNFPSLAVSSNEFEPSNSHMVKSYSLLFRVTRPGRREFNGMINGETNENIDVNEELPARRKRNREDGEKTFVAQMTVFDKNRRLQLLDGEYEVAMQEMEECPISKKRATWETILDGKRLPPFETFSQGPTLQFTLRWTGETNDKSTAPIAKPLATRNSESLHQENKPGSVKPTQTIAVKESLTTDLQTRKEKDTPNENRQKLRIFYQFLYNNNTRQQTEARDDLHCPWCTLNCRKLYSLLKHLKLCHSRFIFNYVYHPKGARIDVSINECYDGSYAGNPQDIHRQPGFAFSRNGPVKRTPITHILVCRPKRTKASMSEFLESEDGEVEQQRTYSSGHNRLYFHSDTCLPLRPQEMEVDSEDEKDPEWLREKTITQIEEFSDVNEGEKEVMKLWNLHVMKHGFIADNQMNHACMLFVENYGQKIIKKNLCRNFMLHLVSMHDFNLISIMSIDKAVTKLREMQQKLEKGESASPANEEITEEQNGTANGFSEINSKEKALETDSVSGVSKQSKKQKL
Chain of EZH2 Y641F mutant (PRC2 enzyme) (Q09028 whole entry partner): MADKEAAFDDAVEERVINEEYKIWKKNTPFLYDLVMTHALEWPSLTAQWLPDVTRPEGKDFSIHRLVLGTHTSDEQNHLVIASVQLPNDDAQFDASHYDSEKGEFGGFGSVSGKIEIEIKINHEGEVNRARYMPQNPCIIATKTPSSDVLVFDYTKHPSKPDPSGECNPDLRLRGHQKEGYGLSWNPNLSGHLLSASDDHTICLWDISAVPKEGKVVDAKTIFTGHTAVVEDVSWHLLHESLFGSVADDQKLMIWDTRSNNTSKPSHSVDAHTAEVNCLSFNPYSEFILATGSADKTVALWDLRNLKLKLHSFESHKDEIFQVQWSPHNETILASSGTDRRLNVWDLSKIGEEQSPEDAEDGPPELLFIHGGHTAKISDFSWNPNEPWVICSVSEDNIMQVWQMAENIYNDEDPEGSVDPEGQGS
Chain of wild-type EZH2 (PRC2 enzyme) (Q15910 whole entry): as the sequence (Q15910 whole entry Y641F) above, with F641Y counted along it
Chain of wild-type EZH2 (PRC2 enzyme) (O75530 whole entry partner): as the sequence (O75530 whole entry partner) above
Chain of wild-type EZH2 (PRC2 enzyme) (Q15022 whole entry partner): as the sequence (Q15022 whole entry partner) above
Chain of wild-type EZH2 (PRC2 enzyme) (Q09028 whole entry partner): as the sequence (Q09028 whole entry partner) above

| SMILES | IC50 [1] [nM] | IC50 [2] [nM] | IC50 [3] [nM] | IC50 (WSU-DLCL2 cells) [nM] |
| --- | --- | --- | --- | --- |
| CCN(c1cc(Cl)cc(C(=O)NCc2c(C)n(C)[nH]c2=O)c1C)[C@H]1CC[C@H](N(C)Cc2ccc(OC)cc2)CC1 [Compound 56, 5-chloro-N-((1,5-dimethyl-3-oxo-2,3-dihydro-1H-pyrazol-4-yl)methyl)-3-(ethyl((trans)-4-((4-methoxybenzyl)(methyl)amino)cyclohexyl)amino)-2-methylbenzamide] | 25 | 11 | 4680 | 10700 |
| CCN(c1cc(Cl)cc(C(=O)NCc2c(N3CCCC3)n(C)[nH]c2=O)c1C)[C@H]1CC[C@H](N(C)C)CC1 [Compound 81, 5-chloro-3-(((trans)-4-(dimethylamino)cyclohexyl) (ethyl)amino)-2-methyl-N-((1-methyl-3-oxo-5-(pyrrolidin-1-yl)-2,3-dihydro-1H-pyrazol-4-yl)methyl)benzamide] | 18 | 5 | 2190 | 1260 |
| CCN(c1cc(Cl)cc(C(=O)NCc2c(OC)n(C)[nH]c2=O)c1C)[C@H]1CC[C@H](N(C)C)CC1 [Compound 86, 5-chloro-3-(ethyl((trans)-4-(dimethylamino)cyclohexyl]amino)-N-((5-methoxy-1-methyl-3-oxo-2,3-dihydro-1H-pyrazol-4-yl)methyl)-2-methylbenzamide] | 21 | 1 | 1790 | 1130 |

The remaining compounds from weak to strong by IC50 [1], led by results:

| IC50 [1] [nM] | IC50 [2] [nM] | SMILES | IC50 [3] [nM] | IC50 (WSU-DLCL2 cells) [nM] |
| --- | --- | --- | --- | --- |
| 35200 | 7520 | CCOc1n[nH]c(C)c1CNC(=O)c1cc(Cl)cc(N(CC)[C@H]2CC[C@H](N(C)C)CC2)c1C [Compound 85, 5-chloro-3-(((trans)-4-(dimethylamino)cyclohexyl)(ethyl)amino)-N-((3-ethoxy-5-methyl-1H-pyrazol-4-yl)methyl)-2-methylbenzamide] | > 50000 | 6380 |
| 46 | 12 | CCn1[nH]c(=O)c(CNC(=O)c2cc(Cl)cc(N(CC)[C@H]3CC[C@H](N(C)Cc4cccc(OC)c4)CC3)c2C)c1C [Compound 63, 5-chloro-3-(ethyl ((trans)-4-((3-methoxybenzyl)-(methyl)-amino)-cyclohexyl)amino)-N-((1-ethyl-5-methyl-3-oxo-2,3-dihydro-1H-pyrazol-4-yl)methyl)-2-methylbenzamide] | > 50000 | 1550 |
| 39 | 12 | CCn1nc(OC)c(CNC(=O)c2cc(Cl)cc(N(CC)[C@H]3CC[C@H](N(C)Cc4ccc(OC)cc4)CC3)c2C)c1C [Compound 70, 5-chloro-3-(ethyl((trans)-4-((4-methoxybenzyl)-(methyl)-amino)-cyclohexyl)-amino)-N-((1-ethyl-3-methoxy-5-methyl-1H-pyrazol-4-yl)methyl)-2-methylbenzamide] | 4060 | 3610 |
| 20 | 10 | CCN(c1cc(Cl)cc(C(=O)NCc2c(C)n(C)[nH]c2=O)c1C)[C@H]1CC[C@H](N(C)Cc2cccc(OC)c2)CC1 [Compound 57, 5-chloro-N-((1,5-dimethyl-3-oxo-2,3-dihydro-1H-pyrazol-4-yl)methyl)-3-(ethyl((trans)-4-((3-methoxybenzyl)(methyl)amino)cyclohexyl)amino)-2-methylbenzamide] | 6160 | 6050 |
